Consider 1 substance from PMC12767106, “In Situ Assembly of Transformable Monopeptide on Activated Neutrophils Attenuates NETs‐Induced Hepatocellular Carcinoma Metastasis by Disrupting NE Nuclear Translocation” (Advanced Science, 2025).

In one data set the test system is activated neutrophils. Put plainly: NETs formation (MPO-DNA ELISA, CitH3 immunofluorescence and Western blot). In kind it is cell-based, mouse. Particulars: PMA-activated neutrophils, 50 µM, 4 h, CitH3 staining and Western blot. The method, then:
Submitted to Advanced Science
Neutrophil Elastase Activity Assay
To evaluate the distribution of active NE on the surface and inside of neutrophils, we used a kit (AkrivisBio’s Neutrophil Elastase Activity Assay, MA-0156), seeded neutrophils in confocal microscopy dishes, and then treated them with NFTP-NPs (50 µM, medium: DMSO = 99:1, v/v), FTP-NPs (50 µM, medium: DMSO = 99:1, v/v), PMA+NFTP-NPs (50 µM, medium: DMSO = 99:1, v/v), and PMA+FTP-NPs (50 µM, medium: DMSO = 99:1, v/v) at 37°C. Because the Neutrophil elastase in the kit cleaves a concrete fluorogenic substrate which releases AFC, providing intense fluorescence, 50 μl of MeOSucc-AAPV-AFC mix (Assay Buffer: MeOSucc-AAPV-AFC = 48:2) was added at 4 h, and after incubation for 1 h, the samples were examined by CLSM (LSM980, Zeiss, Germany).
Quantitative analysis of NE activity […]
DMSO = 99:1, v/v) for 4 h to obtain the solution.35,36 Quantitative analysis was carried out by a NETosis Assay Kit (Cayman Chemical, USA).
Quantitative induction analysis of NETs in vitro […]
According to the manufacturer's instructions, MPO -DNA levels in cultured supernatant were analyzed by an ELISA kit (MEIMIAN, China).38 Briefly, samples were added to each well and incubated with anti -MPO and anti-DNA antibodies for 2 h at room temperature. […] The OD value w as then measured by a microplate […]
For orientation: ELISA stands for enzyme-linked immunosorbent assay.

Another data set deals with resting neutrophils. Nature of the data set: CCK-8 cytotoxicity. Particulars: CCK-8, 24 h, different dosages. In kind it is cell-based, mouse. How it is done: The supernatant was discarded, and the red blood cells were lysed with RBC lysate. The neutrophils were then washed with PBS again, and the supernatant was discarded. The cells were resuspended in culture medium and used for further experiments. […]
10 minutes to remove unbound particles, and the supernatant was collected. […]
In vitro cytotoxicity assay
The CCK-8 assay was used to assess the cell viability of Hepa1-6/luc, resting neutrophils, and activated neutrophils. Following the seeding of 1*10^4 cells per well on a 96-well plate, the cells were subjected to different dosages of FTP-NPs and NFTP-NPs (medium: DMSO = 99:1 v/v). After 24 hours, the cells were incubated for two hours with 10 µL of CCK-8 solution. Finally, a microplate reader (Tecan Infinite M200, Switzerland) was used to measure cell viability based on the absorbance values.
Targeting the capability of NEBP
To evaluate the targeting capability of NE-binding peptide (NEBP), the harvested resting neutrophils and […]

Consider PpIX-GFFVLK-EAIPMSIPPEVK [FTP-NPs], for which, in the data set with activated neutrophils, the “formation of NETs” value was “effectively inhibit the formation of NETs”. Further, the survival rate entry in the data set on resting neutrophils is reported as “over 95%”.
